# Data published in patent US20120329879A1, “BETA-ADRENERGIC RECEPTOR AGONISTS AND USES THEREOF” (THE UNIVERSITY OF TENNESSEE RESEARCH FOUNDATION, priority 2010, published 2012).
# “And” between values parts separate entries of the source, which are not always exact repeats. Equal entries are not always repeated. “Also recorded” adds a separate entry of the source.
# How the values were obtained:
# [1] = system: Human retinal endothelial cells (HREC); test: TNFalpha and cleaved caspase 3 ELISA in retinal endothelial cells cultured in high glucose; format: cell-based; conditions: 50 nM
# Experimental: Human retinal endothelial cells (HREC) were purchased from Cell Systems (Kirkland, Wash.) and grown in either basal (5 mM glucose) or growth (25 mM glucose) media. Both media is supplemented with 10% FBS and antibiotics. The day prior to experiments, cells are serum-starved for 18-24 hours. Rat Müller cells (rMC-1) were grown in DMEM medium with 5 mM glucose or 25 mM glucose. Media was supplemented with 10% FBS and antibiotics. Cells were serum starved prior to all experiments for 18-24 hours.
# Human retinal endothelial cells (HREC) and rat Muller cells (rMC-1) in both glucose conditions were treated with Compound 2 at doses of 10 nM, 50 nM, 100 nM, 1 μM, and 10 μM of Compound 2. Cells of each type were grown in medium containing L-glucose to control for changes in osmolarity. 10 μM isoproterenol was also used for each condition as a positive control. Müller cells were treated for 1 hour and 24 hours, while HREC were treated for 30 and 60 minutes.
# Following treatment, cells were collected into lysis buffer containing protease and phosphatase inhibitors. ELISA analyses for TNFalpha, cleaved caspase 3, and PKA were done according to manufacturers instructions. Data is compared against non-treated cells and cells at the various doses. A Kruskal-Wallis test is done, with a Dunn's test for secondary analyses. […] The dose that decreases TNFalpha and caspase 3 levels also increases PKA activity.
# retina of diabetic rats = test: Assessment of retinal thinning and loss of cells in ganglion cell layer; format: in vivo, rat
# Excerpt: Assessment of retinal thinning and loss of cells in ganglion cell layer Formalin-fixed paraffin sections were stained with toluidine blue for light microscopy and morphometry of retinal thickness (8). Pictures were taken at four locations in the retina (both sides of the optic nerve and mid-retina) at 400×. The nuclei in the retinal ganglion cell layer (GCL) were counted in a […] section of each picture, and the thickness of the inner retina (from the top of the inner nuclear layer to the inner limiting membrane) was assessed using a Retiga camera attached to a Nikon Biophot light microscope with Qcapture software (Qlmaging, Burbay, BC, Canada). Retinal thickness and number of cells in the ganglion cell layer were measured using OpenLab software (Improvision, Lexington, Mass.). Retinal thickness and live retinal imaging were assessed using rodent OCT. Each layer of the retina was examined multiple times on the same animal in a non-invasive way to determine changing in specific regions over the course of the experiment. […] Light microscopy was used for histological examination of neuronal changes, which often occur in the acute phases. Formalin-fixed paraffin sections were stained with toluidine blue for light microscopy and morphometry of retinal thickness. Pictures were taken at four locations in the retina (both sides of the optic nerve and mid-retina) at 400×. The nuclei in the retinal ganglion cell layer (GCL) were counted in a 100 μm section of each picture. The thickness of the inner retina from the top of the inner nuclear layer to the inner limiting membrane was assessed using a Retiga camera attached to a Nikon Biophot light microscope with Qcapture software (Qlmaging, Burbay, BC, Canada). Retinal thickness and number of cells in the retinal ganglion cell layer were measured using OpenLab software (Improvision, Lexington, Mass.). Unpaired T-tests were used to compare data from control, diabetic, and diabetic+eye drop treated animals, with P<0.05 being accepted as significant.
# [2] = Vitreous humor levels of Compound 2 after topical administration to rats; format: in vivo; conditions: rat, 10 mg/kg
# Experimental: For data analyses B/PK parameters were derived from the obtained plasma, vitreous humor, urine and feces concentration data by standard non-compartmental analysis. Terminal half-life was determined as the ratio of ln 2 divided by λz, the negative of the slope of the linear regression of the natural log concentration vs. time profile during the terminal phase. Systemic and ocular exposure was determined as plasma or ocular area under the concentration-time curve (AUC) using the trapezoidal rule. Compound 2 concentration determination and metabolite profiling is conducted using a validated LC/MS/MS assay based on the methodology described (14-15). The LC-MS/MS system comprises a Shimadzu HPLC system (Kyoto, Japan), API-4000 Q Trap tandem mass spectrometer (Foster City, Calif., USA) equipped with a turbo ion-spray and a HTC-PAL autosampler (Leap Technologies, Carrboro, N.C., USA).
# cleaved caspase 3 = test: Cleaved caspase 3 ELISA of retinal lysates of diabetic rats; format: in vivo, rat; conditions: Compound 2 eye drops
# Excerpt: To determine the TNF concentration (Pierce, Rockford Ill.) and levels of cleaved caspase 3 (Cellular Signaling, Danvers, Mass.), ELISA analyses were done according to manufacturers instructions, except that equal protein was loaded into the cleaved caspase 3 ELISA so the optical density numbers can be used.
# [3] = Tissue distribution of Compound 2 in heart, lung and spleen after topical delivery; format: in vivo; conditions: rat, 24 hours after topical 10 mg/kg, single animals 1-5
# left ventricle = test: Heart left ventricle sections and collagen staining in type I diabetic rats; format: in vivo, rat; conditions: type I diabetic rats treated daily with 1 mM
# Excerpt: Staining is for collagen intensity (FIG. 11B), which is increased in diabetes. Analyses on the rats were done for acute changes (8 weeks of diabetes, 45 rats) and chronic changes (8 months of diabetes, 45 rats). In addition to all measurements on the retina, tissue sections of the heart were taken at 8 weeks and 8 months to insure that there is no hypertrophy of the ventricles due to the drug. A Western blot for myosin light chain, a surrogate marker of cardiovascular hypertrophy was also performed. Each month, all rats receive 2 analyses of visual function, electroretinogram (ERG) and live retinal imaging using Optical Coherence […] (OCT). Retinal thickness and live retinal imaging were assessed using rodent OCT. This technology allows for non-invasive visualization of each layer of the retina for multiple testing of the same animal.
# [4] = delayed treatment: 6 month diabetic rats, Compound 2 for 2 months
# [5] = diabetic rats, 1 mM eye drops as preventative, central retina, hydrochloride
smiles,measurement,setting,value
"COc1cc(CCNC[C@H](O)c2ccc(O)c(O)c2)cc(OC)c1OC.Cl (single isomer, unassigned) [Compound 2, 4-[1-hydroxy-2-(1-ethylamino-3-,4-,5-trimethoxyphenyl)ethyl]benzene-1,2-diol hydrochloride]",reduction of TNFalpha levels versus not-treated controls,[1]; REC in 25 mM glucose,23%
same,reduction of caspase 3 levels versus not-treated controls,[1]; REC in 25 mM glucose,54%
same,"TNFalpha levels, in words","[1]; REC in high glucose, vs non-treated",significantly reduced
same,"cleaved caspase 3 levels, in words","[1]; REC in high glucose, vs non-treated, hydrochloride",significantly decreased caspase 3 levels; also recorded: significantly reduced levels of cleaved caspase 3
same,increase in retinal thickness over diabetic rats alone,retina of diabetic rats; [4],~50%
same,"loss of cells in the ganglion cell layer, delayed treatment",retina of diabetic rats; [4],no loss of cells in the ganglion cell layer
same,inner retinal thickness,retina of diabetic rats; [5],loss of inner retinal thickness was prevented; also recorded: maintains the retinal thickness
same,number of cells in the ganglion cell layer,retina of diabetic rats; [5],prevented in the Compound 2-treated animals; also recorded: maintains the retinal thickness and cell number
same,loss of retinal thickness and apoptosis of cells of the ganglion cell layer,"retina of diabetic rats; diabetic rats, 50 mM eye drops 1 time each day for 8 months",effective in preventing the loss of retinal thickness and apoptosis of cells of the ganglion cell layer
same,concentration in the vitreous humor within 1 hour,[2],approximately 8 ug/ml
same,time by which all detectable levels in the vitreous humor are gone,[2],≤ 2 h
same,time of peak concentration in the vitreous humor,[2],< 1 h
same,cleaved caspase 3 levels in retinal lysates,cleaved caspase 3,reduced following treatment
same,concentration in Heart,[3],<400 ng/g
same,concentration in Lung,[3]; hydrochloride,463.43 ng/g and 2262.08 ng/g and 2862.22 ng/g and 2060.08 ng/g and 535.24 ng/g
same,concentration in Spleen,[3]; hydrochloride,12134.03 ng/g and 8393.8 ng/g and 7061.2 ng/g and 4544.4 ng/g and 34331.0 ng/g
same,concentration at 24 h,"[3]; heart, topical, 10 mg/kg",< 400 ng/g
same,left ventricle compared to untreated diabetic rats,left ventricle,no difference in the left ventricle
